Patent publication US20210070747A1, “2(1H)-QUINOLINONE DERIVATIVE” (priority 2017, published 2021)
≈ marks a conversion by molar mass, not a printed value. Where two headings read alike, the source gives them in different places.

Columns and labels:
E. Coli ATCC 25922 = experiment: Test for evaluating antibacterial activity (E. coli), broth microdilution MIC; type: cell-based; settings: Escherichia coli, ATCC25922; 35° C., 18 hours, cation-adjusted Mueller-Hinton medium
In short: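 Broth microdilution per modified CLSI method in cation-adjusted Mueller-Hinton medium. Inoculum from overnight heart infusion agar growth, McFarland 0.5 suspension diluted 10-fold; incubation 35° C for 18 hours. MIC taken as lowest drug concentration with no visible growth.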

E. coli DNA gyrase = biological target: T1, E. coli DNA gyrase (Escherichia coli, UniProt P0AES6); experiment: Test for evaluating the activity of inhibiting E. coli DNA gyrase enzyme (Method 1, supercoiling, Inspiralis enzyme); type: biochemical
T1 construct: made in house; host or cells: E. coli BL21 (DE3)
Experimental: Test Example 1-1 Test for Evaluating the Activity of Inhibiting E. coli DNA Gyrase Enzyme (Method 1)
The enzymatic activity of E. coli DNA gyrase was measured by a method comprising reacting DNA gyrase and its substrate, relaxed pBR322 (Inspiralis), in the presence of ATP and detecting the post-reaction supercoiled pBR322/relaxed pBR322 ratio with H19 (Profoldin).
Specifically, to 1 ng/μL of relaxed pBR322, E. coli DNA gyrase enzyme (Inspiralis) was added at a final concentration of 0.006 U/μL and the mixture was incubated for 60 minutes at room temperature. This reaction was carried out in 20 mmol/L tris-HCl buffered solution (pH 8.0) comprising 0.5 mmol/L ATP, 0.005% bridge 35, 35 mmol/L ammonium acetate, 8 mmol/L magnesium chloride, 4.6% glycerol, and 1 mmol/L dithiothreitol. To the reaction mixture, H19 was added to bring the reaction to an end; thereafter, the supercoiled pBR322/relaxed pBR322 ratio was detected at excitation wavelength/emission wavelength=485 nm/535 nm. An inhibition curve was obtained by allowing the analyte compound to be present at varying concentrations during the reaction described above. […] The test results of interest are shown in [Table 20-1] and [Table 20-2].

[1] = Method 1, read-out: E. Coli Gyrase supercoiling IC50

| Structure (SMILES) | MIC (E. Coli ATCC 25922) | IC50 (E. coli DNA gyrase) | also measured |
| --- | --- | --- | --- |
| CNc1cccc2cc(C(=O)NCc3csc(N)n3)c(=O)[nH]c12.Cl [Example 31, N-[(2-amino-1,3-thiazole-4-yl)methyl]-8-(methylamino)-2-oxo-1,2-dihydroquinoline-3-carboxamide-hydrochloride] | > 16 mg/L | 0.321 µM |  |
| CNc1cc(F)cc2cc(C(=O)Nc3cnc(N4CCNCC4)nc3)c(=O)[nH]c12.Cl [Example 55, 6-Fluoro-8-(methylamino)-2-oxo-N-[2-(piperazin-1-yl)pyrimidin-5-yl]-1,2-dihydroquinoline-3-carboxamide-hydrochloride] | > 16 mg/L | 0.0147 µM |  |
| CNc1cccc2cc(C(=O)Nc3cnc(C(=O)O)nc3)c(=O)[nH]c12 [Example 20, 5-{[8-(methylamino)-2-oxo-1,2-dihydroquinoline-3-carbonyl]amino}pyrimidine-2-carboxylic acid] | > 16 mg/L |  | IC50 (E. coli DNA gyrase; [1]): 0.00119 µM |
| CNc1cccc2cc(C(=O)Nc3ccc(C(=O)NCCCN)cc3)c(=O)[nH]c12.Cl [Example 46, N-{4-[(3-aminopropyl)carbamoyl]phenyl}-8-(methylamino)-2-oxo-1,2-dihydroquinoline-3-carboxamide-hydrochloride] | > 1 mg/L | 0.00747 µM |  |
| CNc1cccc2cc(C(=O)Nc3ccc(C(=O)NCC4CCNCC4)cc3)c(=O)[nH]c12.O=CO [Example 47, 8-(methylamino)-2-oxo-N-(4-{[(piperidine-4-yl)methyl]carbamoyl}phenyl)-1,2-dihydroquinoline-3-carboxamide-formate] | > 32 mg/L | 0.0107 µM |  |
| Nc1cccc2cc(C(=O)Nc3cccc(C(=O)O)c3)c(=O)[nH]c12 [Example 165, 3-[(8-Amino-2-oxo-1,2-dihydroquinoline-3-carbonyl)amino]benzoic acid-trifluoroacetate] |  |  | inhibition at 50 µM (E. coli DNA gyrase; Method 1, at 50000 nM): 27% |
| CNc1cccc2cc(C(=O)Nc3ccc(C(=O)O)cc3OCCCN)c(=O)[nH]c12.O=CO [Example 48, 3-(3-aminopropoxy)-4-{[8-(methylamino)-2-oxo-1,2-dihydroquinoline-3-carbonyl]amino} benzoic acid-formate] | > 16 mg/L | 0.286 µM |  |
| CNc1cc(F)cc2cc(C(=O)Nc3cnc(NCCN)nc3)c(=O)[nH]c12.O=CO [Example 59, N-{2-[(2-aminoethyl)amino]pyrimidine-5-yl}-6-fluoro-8-(methylamino)-2-oxo-1,2-dihydroquinoline-3-carboxamide-formate] | > 2 mg/L | 0.0147 µM |  |
| CNc1cc(F)cc2cc(C(=O)Nc3cnc(NCCN4CCN(C)CC4)nc3)c(=O)[nH]c12 [Example 51, 6-fluoro-8-(methylamino)-N-(2-{[2-(4-methylpiperazine-1-yl)ethyl]amino}pyrimidine-5-yl)-2-oxo-1,2-dihydroquinoline-3-carboxamide] | 16 mg/L (≈ 35.2 µM) |  | IC50 (E. coli DNA gyrase; [1]): 0.00546 µM |
| CNc1cccc2cc(C(=O)Nc3ccc(C(=O)O)cc3OCCN3CCN(C)CC3)c(=O)[nH]c12.Cl [Example 44, 4-{[8-(methylamino)-2-oxo-1,2-dihydroquinoline-3-carbonyl]amino}-3-[2-(4-methylpiperazine-1-yl)ethoxy] benzoic acid-hydrochloride] | > 16 mg/L | 0.373 µM |  |
| CNc1cc(F)cc2cc(C(=O)NCCc3ccccc3)c(=O)[nH]c12 [Example 78, 6-fluoro-8-(methylamino)-2-oxo-N-(2-phenylethyl)-1,2-dihydroquinoline-3-carboxamide] |  |  | inhibition at 0.3 µM (E. coli DNA gyrase; Method 1, at 300 nM): 12% |
| CNc1cccc2cc(C(=O)N[C@@H](Cc3c[nH]cn3)C(=O)O)c(=O)[nH]c12 [Example 13, N-[8-(methylamino)-2-oxo-1,2-dihydroquinoline-3-carbonyl]-L-histidine-trifluoroacetate] |  |  | IC50 (E. coli DNA gyrase; [1]): 31.7 µM |
| CNc1cccc2cc(C(=O)NCc3ccccn3)c(=O)[nH]c12 [Example 21, 8-(methylamino)-2-oxo-N-[(pyridine-2-yl)methyl]-1,2-dihydroquinoline-3-carboxamide] |  |  | inhibition at 3 µM (E. coli DNA gyrase; Method 1, at 3000 nM): 44% |
